From US12533348B2, “Ferroportin-inhibitors for the use in the treatment of transfusion-dependent beta-thalassemia (TDT)” (Vifor (International) AG, priority 2019, dated 2026)
Several values for one entry are separate records, joined by “and”; a condition that tells them apart may be missing. Identical values can stand only once.

Experiments:
[1] = Combination study: plasma concentrations of Fpn127 and DFX (LC-MS/MS); assay type: in vivo, mouse
Procedure: (§1) On day 23 (study end) 1 hour after dosing blood was collected by retro-orbital bleeding from pre-terminally anesthetized mice into BD Microtainer Tubes (Cat. 365967 and 365975) for determination of serum iron, transferrin, erythropoietin and compound exposure. Anesthetized animals were subsequently euthanized by cervical dislocation.
(§2) [formula] Serum EPO was measured using a mouse-specific DuoSet ELISA according to the manufacturer's instructions (R&D Systems, Cat. DY959). Plasma concentrations of Fpn127 and DFX were measured at GVK Biosciences, Hyderabad, IN. Flow Cytometric Analysis of Intracellular ROS, Mitochondria, and PS Exposure
Plasma was collected 1 hour after dosing of DFX on day 23 for determination of compound concentration by LC-MS/MS. Plasma exposure of DFX was similar in animals dosed with DFX alone or in combination with Fpn127 (FIG. 11, Table 12). […] As expected, plasma levels of Fpn127 were low as plasma was sampled approximately 20 h after the last dose of Fpn127.

[2] = tested on: Hbb^th3/+ mouse model of β-thalassemia intermedia; test: Combination study: serum EPO (DuoSet ELISA); assay type: in vivo
Procedure: as §1, §2

[3] = Combination study DFX/Fpn127: clinical observations, mortality and body weight; assay type: in vivo, mouse; conditions: for BW: th3/+ mice, mean
Procedure: One day after switching to lid a blood sample was taken by tail vein incision to determine the baseline Hb levels. Hb was measured using a HaemoCue® device. Hb was also measured on days 8, 15, and 22 in the morning before dosing. The animals were dosed p.o. D with 30 mg/kg DFX in 30% Kolliphor, 120 mg/kg Fpn127 in 0.5% C, or both for a total of 17 doses during the 23 days of study. 30% Kolliphor and 0.5% C were dosed as vehicles. The dose of DFX was administered at the beginning of the dark cycle (active phase) at 9:00 followed by 3 h of access to lid. Then, mice were dosed with Fpn127 (or 0.5% C) and were given access to sd for a 6 h period before switched back to lid. On the dosing was paused and mi had access to lid ad libitum.
Animals and their cages were checked daily by the experimenter during the study on working days. During the experimental phase, animals were weighted minimum once per week and scored according to their clinical symptoms: BW, general behavior and activity, appearance of hair coat, eyes, and nose. Clinical observations were recorded when present on separate score sheets.
BW was recorded once before the start of the experimental phase on day −1. During the experimental phase, individual BW were recorded 1 to 2 times per week to calculate the dosing volume and to monitor weight loss.

[4] = tested on: Hbb^th3/+ mouse model of β-thalassemia intermedia; test: Combination study: flow cytometric analysis of intracellular ROS, mitochondria and PS exposure in mature RBC; assay type: in vivo
Procedure: In peripheral blood taken on day 22 by tail vein incision, ROS were detected with the indicator chloromethyl-2′,7′-dichlorodihydrofluorescein diacetate (CM-H2DCFDA, Invitrogen), the presence of mitochondria was detected with MitoTracker Deep Red FM (Invitrogen), and PS exposure was detected using the Annexin V Apoptosis Detection Kit (Invitrogen) in mature RBC labelled with Ter119 and CD71 antibodies.
For all analysis, cells were analyzed on a CANTOII cytometer (BD Biosciences) and data were analyzed using FlowJo® software (FlowJo, LLC, version 10.2).

[5] = tested on: Hbb^th3/+ mouse model of β-thalassemia intermedia; conditions: in vivo
Procedure: (§3) The aim of this study was to test whether the concurrent use of the iron chelator DFX administered once daily (QD) alone at 30 mg/kg or in combination with Fpn127 administered QD at 120 mg/kg for 3 weeks is causing any therapeutic interactions in a mouse model of β-thalassemia intermedia (Hbb^th3/+; B6; 129P—b1tm1Unc-b2tm1Unc/J, Jackson Laboratories, Stock Number: 002683).
(§4) Animals were euthanized 1 h after the last dose of DFX on study day 23 (dosing day 17).
(§5) On the final study day (day 23), spleen, liver, and kidneys were collected and snap frozen in liquid nitrogen for further analysis, as outlined below. Wet weight of spleen, liver, and kidneys were recorded.
(§6) Content of total Fe was determined in pieces of spleens, livers, and kidneys by ICP-OES in the Analytical Development group of Vifor (International) Ltd., St. Gallen.
(§7) Individual wet weights of organs were recorded. Individual values of total Fe were measured in livers, spleens, and kidneys. Individual values of total Fe content and concentration were calculated. Mean±SD of total Fe concentration and content in livers, spleens, and kidneys was calculated for each group.

[6] = tested on: Hbb^th3/+ mouse model of β-thalassemia intermedia; test: Combination study: organ weights and tissue iron (ICP-OES) in liver, spleen, kidney; conditions: for relative spleen weight: percent of body weight; for relative spleen weight / kidney Fe conc. / liver Fe conc. / spleen Fe conc.: th3/+ mice, DFX 30 mg/kg QD, Fpn127 120 mg/kg QD p.o., end of study (day 23), mean
Procedure: as §3, §4, §5, §6, §7

[7] = tested on: Hbb^th3/+ mouse model of β-thalassemia intermedia; test: Combination study: serum iron (MULTIGENT Iron assay), transferrin ELISA and calculated TSAT; assay type: in vivo
Procedure: […] Anesthetized animals were subsequently euthanized by cervical dislocation.
Serum levels of iron were determined in triplicates using MULTIGENT Iron assay (Abbott Diagnostics, Cat. 6K95). Serum Transferrin (TO was measured in duplicates using a mouse-specific ELISA according to the manufacturer's instructions (Abcam, Cat. ab157724). Transferrin saturation (TSAT) was calculated using the formula: […]

[8] = tested on: Hbb^th3/+ mouse model of β-thalassemia intermedia; test: Combination study: complete blood counts (ProCyte Dx); assay type: in vivo
Procedure: Complete blood counts were performed on fresh EDTA-blood on an automated blood cell analyzer (ProCyte Dx®, IDEXX Laboratories) in-house.

[9] = th3/+ mice, all animals, mature RBCs in whole blood at end of study (pre-terminally d22)
[10] = th3/+ mice, DFX 30 mg/kg QD, Fpn127 120 mg/kg QD p.o., whole blood day 23, all animals, mean

With `O=C(NCc1ncccc1F)c1coc(CCNCCc2nc3ccccc3[nH]2)n1` [Fpn127] the “plasma levels of Fpn127” value ([1]; approximately 20 h after the last dose of Fpn127) was “low”, the “plasma exposure of Fpn127, in presence vs absence of DFX” value ([1]; day 23 (FIG. 11)) was “comparable” and the “Plasma exposure of Fpn127 at the end of the study (mean)” value ([1]; th3/+ mice, all animals, plasma collected on day 23, approximately 20 h after the last dose of Fpn127, LC-MS/MS) was 68 ng/mL. The “effect on EPO levels” value ([2]; Hbbth3/+ animals, day 23 (FIG. 10)) was “reduced EPO levels”, the EPO ([2]; serum, th3/+ mice, day 23, DFX 30 mg/kg QD, Fpn127 120 mg/kg QD p.o., all animals, mean) was 3938 ± 1167 pg/mL and 3938 pg/mL and the “tolerability / clinical symptoms” value ([3]; Hbb^th3/+ mice, DFX 30 mg/kg QD, Fpn127 120 mg/kg QD p.o., 17 doses in 23 days) was “generally well tolerated”. For the same compound, the “effect on BW vs vehicle-treated Hbb^th3/+ mice or WT mice” value ([3]; males and females, once daily for the duration of the study (d22)) was “no effect on BW”, the BW ([3]; DFX 30 mg/kg QD, Fpn127 120 mg/kg QD p.o., day 1, all animals) was 22.2 g and the BW ([3]; DFX 30 mg/kg QD, Fpn127 120 mg/kg QD p.o., day 1, females) was 19.4 ± 1.0 g and 19.4 g. The BW ([3]; DFX 30 mg/kg QD, Fpn127 120 mg/kg QD p.o., day 1, males) was 25.1 ± 1.0 g and 25.1 g, the BW ([3]; DFX 30 mg/kg QD, Fpn127 120 mg/kg QD p.o., day 3, all animals) was 23.6 g and the BW ([3]; DFX 30 mg/kg QD, Fpn127 120 mg/kg QD p.o., day 3, females) was 20.3 g. For the same compound, the BW ([3]; DFX 30 mg/kg QD, Fpn127 120 mg/kg QD p.o., day 3, males) was 26.9 g, the BW ([3]; DFX 30 mg/kg QD, Fpn127 120 mg/kg QD p.o., day 7, all animals) was 23.1 g and the BW ([3]; DFX 30 mg/kg QD, Fpn127 120 mg/kg QD p.o., day 7, females) was 19.8 g. The BW ([3]; DFX 30 mg/kg QD, Fpn127 120 mg/kg QD p.o., day 7, males) was 26.5 g, the BW ([3]; DFX 30 mg/kg QD, Fpn127 120 mg/kg QD p.o., day 10, all animals) was 23.4 g and the BW ([3]; DFX 30 mg/kg QD, Fpn127 120 mg/kg QD p.o., day 10, females) was 20.3 g. For the same compound, the BW ([3]; DFX 30 mg/kg QD, Fpn127 120 mg/kg QD p.o., day 10, males) was 26.5 g, the BW ([3]; DFX 30 mg/kg QD, Fpn127 120 mg/kg QD p.o., day 14, all animals) was 23.3 g and the BW ([3]; DFX 30 mg/kg QD, Fpn127 120 mg/kg QD p.o., day 14, females) was 20.2 g. It also gave a BW ([3]; DFX 30 mg/kg QD, Fpn127 120 mg/kg QD p.o., day 14, males) of 26.3 g, a BW ([3]; DFX 30 mg/kg QD, Fpn127 120 mg/kg QD p.o., day 17, all animals) of 23.2 g and a BW ([3]; DFX 30 mg/kg QD, Fpn127 120 mg/kg QD p.o., day 17, females) of 19.7 g. For the same compound, the BW ([3]; DFX 30 mg/kg QD, Fpn127 120 mg/kg QD p.o., day 17, males) was 26.6 g, the BW ([3]; DFX 30 mg/kg QD, Fpn127 120 mg/kg QD p.o., day 22, all animals) was 23.3 g and the BW ([3]; DFX 30 mg/kg QD, Fpn127 120 mg/kg QD p.o., day 22, females) was 19.8 g. The BW ([3]; DFX 30 mg/kg QD, Fpn127 120 mg/kg QD p.o., day 22, males) was 26.7 g, the “proportion of PS-positive RBC (annexin V staining)” value ([4]; Hbbth3/+ mice (FIG. 12)) was “significantly decreased” and the “RBC function/quality (oxidative stress, apoptosis and maturation)” value ([4]; Hbbth3/+ mice, summary) was “improved RBC quality”. The “proportion of ROS-producing RBC” value ([4]; compared to Hbbth3/+ mice treated with vehicle or DFX alone, CM-H2DCFDA (FIG. 12)) was “significantly decreased”, the RBC containing mitochondria ([4]; compared to vehicle-treated and DFX-treated Hbbth3/+ mice (FIG. 12)) was “less RBC containing mitochondria” and the “% Annex in V-positive RBCs (mean)” value [4, 9] was 0.29%. For the same compound, the “% Mito Tracker-positive RBCs (mean)” value [4, 9] was 0.19%, the “% ROS-positive RBCs (mean)” value [4, 9] was 32.82% and the “effect on kidney weight vs vehicle-treated Hbbth3/+ mice” value [5] was “no effect on kidney weight”. For the same compound, the “effect on liver weight vs vehicle-treated Hbbth3/+ mice” value [5] was “no effect on liver weight”, the “effect on total liver iron concentration vs vehicle-treated th3/+ mice” value ([6]; end of study (FIG. 3)) was “no effect on liver iron concentration” and the “effect on total spleen iron concentration vs vehicle-treated th3/+ mice” value ([6]; end of study (FIG. 4)) was “significantly increased”. For the same compound, the “effect on total kidney iron concentration vs vehicle-treated Hbbth3/+ mice” value ([6]; end of study (FIG. 5)) was “significantly reduced”, the “effect on relative spleen weight in th3/+ animals” value ([6]; end of study d23 (FIG. 4)) was “significantly reduced” and the relative spleen weight ([6]; all animals) was 0.99±0.18% and 0.99%. For the same compound, the relative spleen weight ([6]; females) was 1.12%, the relative spleen weight ([6]; males) was 0.86% and the “kidney Fe conc.” value ([6]; all animals) was 126.7 ± 23.6 µg/g and 126.7 µg/g. For the same compound, the “liver Fe conc.” value ([6]; all animals) was 332.2 ± 75.2 µg/g and 332.2 µg/g, the “spleen Fe conc.” value ([6]; all animals) was 2738.0 ± 300.8 µg/g and 2738.0 µg/g and the “kidney Fe conc.” value ([6]; females) was 138.9 µg/g. The “liver Fe conc.” value ([6]; females) was 371.8 µg/g, the “spleen Fe conc.” value ([6]; females) was 2713.0 µg/g and the “kidney Fe conc.” value ([6]; males) was 114.5 µg/g. The “liver Fe conc.” value ([6]; males) was 292.5 µg/g, the “spleen Fe conc.” value ([6]; males) was 2760.0 µg/g and the “effect on TSAT” value ([7]; Hbbth3/+ mice, day 23 (FIG. 10)) was “significantly decreased”. For the same compound, the TSAT ([7]; calculated from Tf and serum iron, th3/+ mice, day 23, 1 h after last DFX dose, approx. 20 h after last Fpn127 dose, all animals, mean) was 17.7%, the “effect on serum iron vs vehicle treated th3/+ and WT animals” value ([7]; day 23, last Fpn127 dose given 20 h before (FIG. 10)) was “significantly reduced” and the serum iron ([7]; th3/+ mice, day 23, 1 h after last DFX dose (30 mg/kg), approx. 20 h after last Fpn127 dose (120 mg/kg), all animals, mean) was 19.9 ± 3.3 µM and 19.9 µM. For the same compound, the “leukocyte, neutrophil and lymphocyte counts” value ([8]; Hbb^th3/+ mice, day 23 (FIG. 8), for DFX alone: total leukocyte and lymphocyte counts) was “reduced to levels similar to WT”, the “RBC indices (RBC counts, hematocrit, RDW, reticulocyte counts)” value ([8]; Hbbth3/+ mice, day 23 (FIG. 7)) was “significantly improved” and the HCT [8, 10] was 31.2%. The Leukocytes [8, 10] was 5.7 10E3/μL, the Lymphocytes [8, 10] was 5.0 10E3/μL and the MCH [8, 10] was 9.9 pg. The MCHC [8, 10] was 27.4 g/dL, the MCV [8, 10] was 36.4 fL and the Neutrophils [8, 10] was 0.3 10E3/μL. The RBC [8, 10] was 9.9 10E6/μL, the RDW [8, 10] was 39.1% and the RET [8, 10] was 1332 10E3/μL. The Ret-He [8, 10] was 11.8 pg.
